Structures are written as SMILES. Active and inactive are the calls of the source. The calls are words filed in the database; no cut-off is given here.

Data set [1] deals with MCF7. Briefly: Cytotoxicity against human MCF7 cells assessed as cell death by lactate dehydrogenase release assay. It is filed as functional, cell-based.
For data set [2], the system named is HEK293. Briefly: Cytotoxicity against HEK293 cells assessed as cell death by lactate dehydrogenase release assay. The following applies: Homo sapiens. It counts as functional, cell-based.
The subject of a further data set is Hep 3B2. Briefly: Cytotoxicity against human Hep3B cells assessed as levels of nitric oxide production at 100 uM after 30 to 300 mins by colorimetric assay. It counts as functional, cell-based.
Data set [3] relates to HeLa. Briefly: Cytotoxicity against human HeLa cells assessed as levels of nitric oxide production at 100 uM after 30 to 300 mins by colorimetric assay. It counts as functional, cell-based.
The subject of data set [4] is PC-3. Briefly: Cytotoxicity against human PC3 cells assessed as levels of nitric oxide production at 100 uM after 30 to 300 mins by colorimetric assay. It is filed as functional, cell-based.
Data set [5] relates to MCF7. The data set can be described thus: Cytotoxicity against human MCF7 cells assessed as levels of nitric oxide production at 100 uM after 30 to 300 mins by colorimetric assay. It counts as functional, cell-based.
In data set [6] the test system is HEK293. The data set can be described thus: Cytotoxicity against human HEK293 cells assessed as levels of nitric oxide production at 100 uM after 30 to 300 mins by colorimetric assay. It counts as functional, cell-based.
A further data set deals with Mus musculus. The data set can be described thus: Toxicity in BALB/c mouse at 15 to 100 mg/kg, ip daily for 3 days assessed after 15 days. It is filed as organism-based. Details: dose 15-100 mg/kg, route intraperitoneal. Conditions: in vivo, 360 h.
The nature of data set [7]: Antitumor activity against human Hep3B cells xenografted in non-obese diabetic SCID mouse assessed as reduction in tumor size at 15 mg/kg, ip after 35 days. It is filed as functional, Hep 3B2. The following applies: route intraperitoneal.
Data set [8] can be described thus: Antitumor activity against human Hep3B cells xenografted in non-obese diabetic SCID mouse assessed as reduction in tumor weight at 15 mg/kg, ip after 35 days. It counts as functional, Hep 3B2. Conditions: route intraperitoneal. For orientation: In xenograft studies the graft and the host belong to different species.
For data set [9], the system named is HepG2. The data set can be described thus: Cytotoxicity against human HepG2 cells assessed as levels of nitric oxide production at 100 uM after 30 to 300 mins by colorimetric assay. It counts as functional, cell-based.
Data set [10] concerns HepG2. The data set can be described thus: Cytotoxicity against human HepG2 cells assessed as cell death at 1 uM after 24 hrs by lactate dehydrogenase release assay. It counts as functional.
Data set [11] relates to HepG2. Briefly: Cytotoxicity against human HepG2 cells assessed as cell death at 0.1 uM after 24 hrs by lactate dehydrogenase release assay. It is filed as functional.
Data set [12] concerns HepG2. The data set can be described thus: Cytotoxicity against human HepG2 cells assessed as cell death at 0.01 uM after 24 hrs by lactate dehydrogenase release assay. It counts as functional.
Data set [13] relates to HepG2. Briefly: Cytotoxicity against human HepG2 cells assessed as cell death at 0.001 uM after 24 hrs by lactate dehydrogenase release assay. It is filed as functional.
The nature of data set [14]: Cytotoxicity against human Hep3B cells assessed as cell death at 1 uM after 24 hrs by lactate dehydrogenase release assay. It is filed as functional, Hep 3B2.
Data set [15] can be described thus: Cytotoxicity against human Hep3B cells assessed as cell death at 0.1 uM after 24 hrs by lactate dehydrogenase release assay. It counts as functional, Hep 3B2.
Data set [16] is described as follows: Cytotoxicity against human Hep3B cells assessed as cell death at 0.01 uM after 24 hrs by lactate dehydrogenase release assay. It counts as functional, Hep 3B2.
A short description of data set [17]: Cytotoxicity against human Hep3B cells assessed as cell death at 0.001 uM after 24 hrs by lactate dehydrogenase release assay. It counts as functional, Hep 3B2.
Data set [18] deals with HeLa. The data set can be described thus: Cytotoxicity against human HeLa cells assessed as cell death by lactate dehydrogenase release assay. It is filed as functional, cell-based.
Data set [19] has as its system PC-3. Briefly: Cytotoxicity against human PC3 cells assessed as cell death by lactate dehydrogenase release assay. It is filed as functional, cell-based.

`CC1(C)CC[C@]2(C(=O)O)CC[C@]3(C)C(=CC[C@@H]4[C@@]5(C)CC[C@H](O)C(C)(C)[C@@H]5CC[C@]43C)[C@@H]2C1` [OLEANOLIC_ACID]: the outcome in the data set with MCF7 [1], in the data set with HEK293 [2], with HeLa [3], in the data set on PC-3 [4], in the data set with MCF7 [5] and with HEK293 [6] was inactive. Further, the outcome with HeLa [18] and in the data set on PC-3 [19] was inactive. In addition, the outcome in the data set on Hep 3B2 and in the data set with HepG2 [9] was Active. The Activity result in the data set on Mus musculus was “Non-toxic”; in [7] it was 668 mm3; in data set [8], 0.961 g; in the data set with HepG2 [10], 0%; in the data set on HepG2 [11], 0%; in the data set with HepG2 [12], 0%. The Activity (in the data set with HepG2 [13]; in [14]; in data set [15]; in data set [16]; in data set [17]) was 0% throughout.
As for `CC(CCOc1no[n+]([O-])c1S(=O)(=O)c1ccccc1)OC(=O)[C@]12CCC(C)(C)C[C@H]1C1=CC[C@@H]3[C@@]4(C)CC[C@H](O)C(C)(C)[C@@H]4CC[C@@]3(C)[C@]1(C)CC2` (some centres not stated), the outcome in the data set on MCF7 [1], with HEK293 [2], in the data set on HeLa [3], with PC-3 [4], with MCF7 [5] and with HEK293 [6] was inactive. In addition, the outcome with HeLa [18] and in the data set with PC-3 [19] was inactive. The result in the data set with Hep 3B2 and in the data set with HepG2 [9] was Active. Moreover, the Activity result with Mus musculus is recorded as “Non-toxic”; in data set [7] it was 289 mm3; in data set [8], 0.332 g; in the data set with HepG2 [10], 89.21%; in the data set with HepG2 [11], 55.11%; in the data set on HepG2 [12] it was 6.67%. In addition, the Activity in the data set with HepG2 [13] is given as 0%; in [14] it was 92.18%; in data set [15], 63.51%; in data set [16], 11.05%; in data set [17], 0%.
